Reference: ChEMBL document CHEMBL4765470 (J Med Chem, 2021)
Starred links: 1 amine or outer side, 2 acyl side, 3 side chain; linkers in the order of their positions; H or OH if unused. Non-standard residues stand in square brackets, D forms with d. Residues, ends and D or L forms follow the SMILES beside them. *: point of attachment. Ala(thiazol-5-yl) = N[C@@H](Cc1cncs1)C(=O)O; γ4hPhe = O=C(CC[C@H](Cc1ccccc1)N[*:1])[*:2]; 1Nal = N[C@@H](Cc1cccc2ccccc12)C(=O)O; 2Nal = N[C@@H](Cc1ccc2ccccc2c1)C(=O)O; 2Thi = N[C@@H](Cc1cccs1)C(=O)O; Cha = N[C@@H](CC1CCCCC1)C(=O)O; Tle = CC(C)(C)[C@H](N)C(=O)O; Nle = CCCC[C@H](N)C(=O)O; Orn = NCCC[C@H](N)C(=O)O; Ac5c = NC1(C(=O)O)CCCC1; Dab = NCC[C@H](N)C(=O)O; Ac3c = NC1(C(=O)O)CC1; Bn = c1ccc(C*)cc1

Experiments:
Apelin receptor [1] = molecular target: T1, Apelin receptor (Homo sapiens, UniProt P35414); test: Displacement of [125I] [NIe75, Tyr77]Pyr-apelin-13 from YFP-tagged human APJ receptor expressed in HEK293 cell membranes incubated for 1 hr by gamma counting based Cheng-Prusoff equation analysis
T1 sequence (P35414 whole entry): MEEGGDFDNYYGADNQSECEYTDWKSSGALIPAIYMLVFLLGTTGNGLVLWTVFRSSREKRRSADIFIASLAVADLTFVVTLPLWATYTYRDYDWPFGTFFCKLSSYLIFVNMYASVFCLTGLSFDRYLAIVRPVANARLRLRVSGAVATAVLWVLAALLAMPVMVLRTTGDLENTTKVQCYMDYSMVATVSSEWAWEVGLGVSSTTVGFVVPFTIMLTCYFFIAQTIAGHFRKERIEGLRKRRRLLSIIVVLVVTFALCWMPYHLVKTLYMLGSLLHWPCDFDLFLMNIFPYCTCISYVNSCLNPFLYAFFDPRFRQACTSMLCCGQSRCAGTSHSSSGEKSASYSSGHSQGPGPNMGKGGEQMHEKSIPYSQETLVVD

Apelin receptor [2] = molecular target: T1, Apelin receptor; test: Agonist activity at human APJ receptor expressed in HEK293 cells co-expressing Rlucll-beta-arrestin2 assessed as induction of beta-arrestin2 recruitment to APJ incubated for 30 mins by BRET assay; format: cell-based
Apelin receptor [3] = molecular target: T1, Apelin receptor; test: Agonist activity at human APJ receptor expressed in HEK293T cells co-expressing PDZ-Rho-Gef-RLucll assessed as induction of Galpha12 effector (PDZ-RhoGEF) to the cell membrane incubated for 5 mins by BRET assay; format: functional, cell-based
Apelin receptor [4] = molecular target: T1, Apelin receptor; test: Agonist activity at human APJ receptor expressed in HEK293 cells co-expressing Galpha(i1)-RlucII(91) assessed as induction of dissociation of Galpha(i1) from G-beta-gamma subunits incubated for 5 mins by BRET assay; format: cell-based

| Compound | Ki (Apelin receptor [1]) | EC50 (Apelin receptor [2]) | EC50 (Apelin receptor [3]) | EC50 (Apelin receptor [4]) |
| --- | --- | --- | --- | --- |
| CCCC[C@H](N)C(=O)N1CCC[C@H]1C(=O)N[C@@H](CC(C)C)C(=O)N[C@@H](Cc1cnc[nH]1)C(=O)N[C@@H](CO)C(=O)N[C@@H](CCCNC(=N)N)C(=O)N[C@H](C(=O)N1CCC[C@H]1C(=O)N[C@@H](CCc1ccccc1)C(=O)N1CCC[C@H]1C(=O)O)C(C)C | 9.3 nM | 151 nM | 128 nM | 4 nM |
| CCCC[C@H](N)C(=O)N1CCC[C@H]1C(=O)N[C@@](C)(CC(C)C)C(=O)N[C@@H](Cc1cnc[nH]1)C(=O)N[C@@H](CO)C(=O)N[C@@H](CCCNC(=N)N)C(=O)N[C@H](C(=O)N1CCC[C@H]1C(=O)N[C@@H](Cc1ccccc1)C(=O)N1CCC[C@H]1C(=O)O)C(C)C | 1.1 nM | 88 nM | 74 nM | 1.1 nM |
| CCCC[C@H](N)C(=O)N1CCC[C@H]1C(=O)N[C@@H](CC(C)C)C(=O)N[C@@H](Cc1cnc[nH]1)C(=O)N[C@@H](CO)C(=O)N[C@@H](CCCNC(=N)N)C(=O)N[C@H](C(=O)N1CCC[C@H]1C(=O)N[C@@H](Cc1ccccc1)C(=O)N1C2CCCCC2C[C@H]1C(=O)O)C(C)C (stereo not given in full) | 5.1 nM | 172 nM | 224 nM | 6.9 nM |
| CCCC[C@H](N)C(=O)N1CCC[C@H]1C(=O)N[C@H](C(=O)N[C@@H](Cc1cnc[nH]1)C(=O)N[C@@H](CO)C(=O)N[C@@H](CCCNC(=N)N)C(=O)N[C@H](C(=O)N1CCC[C@H]1C(=O)N[C@@H](Cc1ccccc1)C(=O)N1CCC[C@H]1C(=O)O)C(C)C)[C@@H](C)CC (H-[Nle]PIHSRVPFP-OH) | 16 nM | 370 nM | 141 nM | 5.8 nM |
| CCCC[C@H](N)C(=O)N1CCC[C@H]1C(=O)N[C@@H](CC(C)C)C(=O)N[C@@H](Cc1cnc[nH]1)C(=O)N[C@@H](CO)C(=O)N[C@@H](CCCNC(=N)N)C(=O)N[C@@H](Cc1ccccc1)C(=O)N1CCC[C@H]1C(=O)N[C@@H](Cc1ccccc1)C(=O)N1CCC[C@H]1C(=O)O (H-[Nle]PLHSRFPFP-OH) | 18 nM | 533 nM | 314 nM | 14 nM |
| CCCC[C@H](N)C(=O)N1CCC[C@H]1C(=O)N[C@@H](CC(C)C)C(=O)N[C@@H](Cc1cnc[nH]1)C(=O)N[C@@H](CO)C(=O)N[C@@H](CCCNC(=N)N)C(=O)N[C@H](C(=O)N1CCC[C@H]1C(=O)N[C@H](CCC(=O)O)Cc1ccccc1)C(C)C (H-[Nle]PLHSRVP-γ4hPhe) | 8.9 nM | 175 nM | 198 nM | 5.8 nM |
| CCCC[C@H](N)C(=O)N1CCC[C@H]1C(=O)N[C@@H](CC(C)C)C(=O)N[C@@H](Cc1cnc[nH]1)C(=O)N[C@@H](CO)C(=O)N[C@@H](CCCNC(=N)N)C(=O)N[C@H](C(=O)N1CCC[C@H]1C(=O)N[C@@H](Cc1ccccc1)C(=O)N[C@@H](Cc1ccccc1)C(=O)O)C(C)C (H-[Nle]PLHSRVPFF-OH) | 4 nM | 53 nM | 43 nM | 2.3 nM |
| CCCC[C@H](N)C(=O)N1CCC[C@H]1C(=O)N[C@@H](CC(C)C)C(=O)N[C@@H](Cc1cnc[nH]1)C(=O)N[C@@H](CO)C(=O)N[C@@H](CCCNC(=N)N)C(=O)N[C@H](C(=O)N1CCC[C@H]1C(=O)N[C@@H](Cc1ccccc1)C(=O)N[C@@H](CC(C)C)C(=O)O)C(C)C (H-[Nle]PLHSRVPFL-OH) | 20 nM | 149 nM | 525 nM | 4.6 nM |
| CCCC[C@H](N)C(=O)N1CCC[C@H]1C(=O)N[C@@H](CC(C)C)C(=O)N[C@@H](Cc1cnc[nH]1)C(=O)N[C@@H](CO)C(=O)N[C@@H](CCCNC(=N)N)C(=O)N[C@H](C(=O)N1CCC[C@H]1C(=O)N[C@@H](Cc1ccccc1)C(=O)N[C@@H](Cc1ccc(OCc2ccccc2)cc1)C(=O)O)C(C)C (H-[Nle]PLHSRVPFY(Bn)-OH) | 19 nM | 381 nM | 1520 nM | 19 nM |
| CCCC[C@H](N)C(=O)N1CCC[C@H]1C(=O)N[C@@H](CC(C)C)C(=O)N[C@@H](Cc1cnc[nH]1)C(=O)N[C@@H](CO)C(=O)N[C@@H](CCCNC(=N)N)C(=O)NC1(C(=O)N2CCC[C@H]2C(=O)N[C@@H](Cc2ccccc2)C(=O)N2CCC[C@H]2C(=O)O)CCCC1 (H-[Nle]PLHSR[Ac5c]PFP-OH) | > 10000 nM | – | – | – |
| CCCC[C@H](N)C(=O)N1CCC[C@H]1C(=O)N[C@@H](CC(C)C)C(=O)N[C@@H](Cc1cnc[nH]1)C(=O)N[C@@H](CO)C(=O)N[C@@H](CCCNC(=N)N)C(=O)N[C@@H](CC1CCCCC1)C(=O)N1CCC[C@H]1C(=O)N[C@@H](Cc1ccccc1)C(=O)N1CCC[C@H]1C(=O)O (H-[Nle]PLHSR[Cha]PFP-OH) | 152 nM | – | – | – |
| CCCC[C@H](N)C(=O)N1CCC[C@H]1C(=O)N[C@@H](CC(C)C)C(=O)N[C@@H](Cc1cnc[nH]1)C(=O)N[C@@H](CO)C(=O)N[C@@H](CCCNC(=N)N)C(=O)N[C@H](C(=O)N1CCC[C@H]1C(=O)N[C@@H](Cc1ccccc1)C(=O)N1CCC[C@H]1C(=O)O)C(C)(C)C (H-[Nle]PLHSR[Tle]PFP-OH) | 174 nM | – | – | – |
| CCCC[C@H](N)C(=O)N1CCC[C@H]1C(=O)N[C@@H](CC(C)C)C(=O)N[C@@H](Cc1c[nH]c2ccccc12)C(=O)N[C@@H](CO)C(=O)N[C@@H](CCCNC(=N)N)C(=O)N[C@H](C(=O)N1CCC[C@H]1C(=O)N[C@@H](Cc1ccccc1)C(=O)N1CCC[C@H]1C(=O)O)C(C)C (H-[Nle]PLWSRVPFP-OH) | 62 nM | – | – | – |
| CCCC[C@H](N)C(=O)N1CCC[C@H]1C(=O)N[C@@H](CC(C)C)C(=O)N[C@@H](Cc1cccc2ccccc12)C(=O)N[C@@H](CO)C(=O)N[C@@H](CCCNC(=N)N)C(=O)N[C@H](C(=O)N1CCC[C@H]1C(=O)N[C@@H](Cc1ccccc1)C(=O)N1CCC[C@H]1C(=O)O)C(C)C (H-[Nle]PL[1Nal]SRVPFP-OH) | > 10000 nM | – | – | – |
| CCCC[C@H](N)C(=O)N1CCC[C@H]1C(=O)N[C@@H](CC(C)C)C(=O)N[C@@H](Cc1ccc2ccccc2c1)C(=O)N[C@@H](CO)C(=O)N[C@@H](CCCNC(=N)N)C(=O)N[C@H](C(=O)N1CCC[C@H]1C(=O)N[C@@H](Cc1ccccc1)C(=O)N1CCC[C@H]1C(=O)O)C(C)C (H-[Nle]PL[2Nal]SRVPFP-OH) | > 10000 nM | – | – | – |
| CCCC[C@H](N)C(=O)N1CCC[C@H]1C(=O)N[C@@H](CC(C)C)C(=O)N[C@@H](Cc1cccs1)C(=O)N[C@@H](CO)C(=O)N[C@@H](CCCNC(=N)N)C(=O)N[C@H](C(=O)N1CCC[C@H]1C(=O)N[C@@H](Cc1ccccc1)C(=O)N1CCC[C@H]1C(=O)O)C(C)C (H-[Nle]PL[2Thi]SRVPFP-OH) | 664 nM | – | – | – |
| CCCC[C@H](N)C(=O)N1CCC[C@H]1C(=O)N[C@@H](CC(C)C)C(=O)N[C@@H](Cc1cncs1)C(=O)N[C@@H](CO)C(=O)N[C@@H](CCCNC(=N)N)C(=O)N[C@H](C(=O)N1CCC[C@H]1C(=O)N[C@@H](Cc1ccccc1)C(=O)N1CCC[C@H]1C(=O)O)C(C)C (H-[Nle]PL[Ala(thiazol-5-yl)]SRVPFP-OH) | 71 nM | – | – | – |
| CCCC[C@H](N)C(=O)N1CCC[C@H]1C(=O)N[C@@H](CC(C)C)C(=O)N[C@@H](CC1CCCCC1)C(=O)N[C@@H](CO)C(=O)N[C@@H](CCCNC(=N)N)C(=O)N[C@H](C(=O)N1CCC[C@H]1C(=O)N[C@@H](Cc1ccccc1)C(=O)N1CCC[C@H]1C(=O)O)C(C)C (H-[Nle]PL[Cha]SRVPFP-OH) | 474 nM | – | – | – |
| CCCC[C@H](N)C(=O)N1CCC[C@H]1C(=O)N[C@@H](CC(C)C)C(=O)N[C@@H](CCN)C(=O)N[C@@H](CO)C(=O)N[C@@H](CCCNC(=N)N)C(=O)N[C@H](C(=O)N1CCC[C@H]1C(=O)N[C@@H](Cc1ccccc1)C(=O)N1CCC[C@H]1C(=O)O)C(C)C (H-[Nle]PL[Dab]SRVPFP-OH) | > 10000 nM | – | – | – |
| CCCC[C@H](N)C(=O)N1CCC[C@H]1C(=O)N[C@@H](CC(C)C)C(=O)N[C@@H](CCCN)C(=O)N[C@@H](CO)C(=O)N[C@@H](CCCNC(=N)N)C(=O)N[C@H](C(=O)N1CCC[C@H]1C(=O)N[C@@H](Cc1ccccc1)C(=O)N1CCC[C@H]1C(=O)O)C(C)C (H-[Nle]PL[Orn]SRVPFP-OH) | > 10000 nM | – | – | – |
| CCCC[C@H](N)C(=O)N1CCC[C@H]1C(=O)N[C@H](C(=O)N[C@@H](Cc1cnc[nH]1)C(=O)N[C@@H](CO)C(=O)N[C@@H](CCCNC(=N)N)C(=O)N[C@H](C(=O)N1CCC[C@H]1C(=O)N[C@@H](Cc1ccccc1)C(=O)N1CCC[C@H]1C(=O)O)C(C)C)C(C)C (H-[Nle]PVHSRVPFP-OH) | 54 nM | – | – | – |
| CCCC[C@H](N)C(=O)N1CCC[C@H]1C(=O)NC1(C(=O)N[C@@H](Cc2cnc[nH]2)C(=O)N[C@@H](CO)C(=O)N[C@@H](CCCNC(=N)N)C(=O)N[C@H](C(=O)N2CCC[C@H]2C(=O)N[C@@H](Cc2ccccc2)C(=O)N2CCC[C@H]2C(=O)O)C(C)C)CC1 (H-[Nle]P[Ac3c]HSRVPFP-OH) | 278 nM | – | – | – |
| H-HSRVPFP-OH | > 10000 nM | – | – | – |
